Experimental data published in article PMC8151732, “Thiazole–Chalcone Hybrids as Prospective Antitubercular and Antiproliferative Agents: Design, Synthesis, Biological, Molecular Docking Studies and In Silico ADME Evaluation” (Molecules, 2021).
Values after ≈ are worked out from the molar mass of the structure shown. Where two headings read alike, the source gives them in different places.

Experiments:
[1] = system: prostate cancer cell line (DU-145); experiment: Antiproliferative activity, MTT assay; details: mean ± SD (n = 3), converted from µg/mL
Procedure: (§1) In both the assays, the IC50 values of the tested compounds were compared with the positive control Methotrexate (Mtx). The reduction of the soluble MTT to blue-color formazan is the principle underlined in MTT assay and such change is chiefly due to the action of intracellular mitochondrial reductase in the living cells. […] Later, the desired concentrations of the compounds were achieved by dissolving in sterile water. The cells were transferred on to 96-well plates at 100 µL total volume and with a density of 1 × 10^4 cells per well. The cells were permitted to adhere for a period of 24 h and then the assay medium was replaced with a fresh medium containing target compounds and incubated in DMEM with 10% fetal bovine serum (FBS) medium at 37 °C for an additional 48 h. Later, the medium was replaced with 90 μL of fresh DMEM without FBS. The above wells were treated with 10 μL of MTT reagent (5 mg/mL of stock solution in DMEM without FBS) and incubated for 3–4 h at 37 °C. The formed blue formazan crystals were dissolved in 200 μL of DMSO. The optical density was then determined at 570 nm using a micro plate reader. The assay was executed in triplicate for three independent experiments. […] The IC50 values measured in µg/mL for the antiproliferative were converted and expressed in µM. Additionally, all the compounds were also assessed for their cytotoxic activity on the normal human liver cell lines (L02) using the same protocol discussed above.

[2] = system: normal human liver cell lines (L02); experiment: Cytotoxic activity on normal cells, MTT assay; type: cell-based; details: for IC50: Homo sapiens, same protocol as DU-145, read-out: Normal Liver Cell Line (L02) (IC50 in µg/mL)
Procedure: as §1

[3] = system: Mycobacterium tuberculosis H37Rv strain; experiment: Antitubercular activity, broth dilution MIC; type: cell-based; details: for MIC: Mycobacterium tuberculosis, H37RV, 504 h, read-out: Mtb (H37Rv Strain) (MIC in µM); for MIC / Mtb (H37Rv Strain) (MIC in µM): broth dilution, 21 days at 37 °C, mean of three independent experiments, converted from µg/mL; for antitubercular potency relative to the standard pyrazinamide: ratio of MICs, pyrazinamide MIC 25.34 ± 2 µM; for antitubercular activity of F compounds over the Cl-containing compounds: MIC 20.68 µM (9, 11) vs. 78.46 µM (1, 3)
[4] = Homo sapiens, DU-145, 48 h, read-out: Prostate Cancer Cell Line (DU-145) (IC50 in µM), MTT, 48 h
[5] = read-out: Prostate Cancer Cell Line (DU-145) (IC50 in µM), MTT, 48 h

Compound: O=C(/C=C/c1sc(Cl)nc1Cl)c1ccncc1 [Compound 19, (E)-3-(2,4-dichlorothiazol-5-yl)-1-(pyridin-4-yl)prop-2-en-1-one]
- IC50 [1, 4]: 14 ± 1 µM
- melting point: 177 °C
- IC50 [2]: > 70 µg/mL
- MIC [3]: 350.7 ± 2 µM (≈ 100 µg/mL)

Compound: (E)-1-(2,4-dichlorophenyl)-3-(2,4-dichlorothiazol-5-yl)prop-2-en-1-one [Compound 5]
- IC50 [1, 5]: 90.6 ± 1 µM
- Normal Liver Cell Line (L02) (IC50 in µg/mL) ([2]; same protocol as DU-145): >70 µg/mL
- Mtb (H37Rv Strain) (MIC in µM) [3]: 35.40 ± 2 µM

Compound: O=C(/C=C/c1sc(Cl)nc1Cl)c1cccnc1 [Compound 18, (E)-3-(2,4-dichlorothiazol-5-yl)-1-(pyridin-3-yl)prop-2-en-1-one]
- IC50 [1, 4]: 28.1 ± 1 µM
- melting point: 162 °C
- IC50 [2]: > 70 µg/mL
- MIC [3]: 701.4 ± 1 µM (≈ 200 µg/mL)

Compound: CN(Cc1cnc2nc(N)nc(N)c2n1)c1ccc(C(=O)N[C@@H](CCC(=O)O)C(=O)O)cc1 [Methotrexate, reference compound]
- IC50 [1, 4]: 11 ± 1 µM
- IC50 [2]: > 70 µg/mL

Compound: O=C(/C=C/c1sc(Cl)nc1Cl)c1cc(F)ccc1F [Compound 13, (E)-1-(2,5-difluorophenyl)-3-(2,4-dichlorothiazol-5-yl)prop-2-en-1-one]
- IC50 [1, 4]: 3198.7 ± 2 µM
- melting point: 129 °C
- IC50 [2]: > 70 µg/mL
- MIC [3]: 39 ± 1 µM (≈ 12.5 µg/mL)

Compound: O=C(/C=C/c1sc(Cl)nc1Cl)c1cccc(F)c1 [Compound 10, (E)-1-(3-fluorophenyl)-3-(2,4-dichlorothiazol-5-yl)prop-2-en-1-one]
- IC50 [1, 4]: 423.6 ± 2 µM
- IC50 [1, 5]: 847.3 ± 2 µM
- melting point: 112 °C
- IC50 [2]: > 70 µg/mL
- MIC [3]: 165.5 ± 1 µM (≈ 50 µg/mL)

Compound: O=C(/C=C/c1sc(Cl)nc1Cl)c1c(F)cccc1F [Compound 14, (E)-1-(2,6-difluorophenyl)-3-(2,4-dichlorothiazol-5-yl)prop-2-en-1-one]
- IC50 [1, 4]: 25 ± 2 µM
- melting point: 141 °C
- IC50 [2]: > 70 µg/mL
- MIC [3]: 9.74 ± 2 µM (≈ 3.12 µg/mL)
- antitubercular potency relative to the standard pyrazinamide [3]: 2.6 times

Compound: O=C(/C=C/c1sc(Cl)nc1Cl)c1cc(F)cc(F)c1 [Compound 16, (E)-1-(3,5-difluorophenyl)-3-(2,4-dichlorothiazol-5-yl)prop-2-en-1-one]
- IC50 [1, 4]: 3198.7 ± 1 µM
- melting point: 109 °C
- IC50 [2]: > 70 µg/mL
- MIC [3]: 156 ± 2 µM (≈ 50 µg/mL)

Compound: NC(=O)c1cnccn1 [Pyrazinamide, reference compound]
- MIC [3]: 25.3 µM (≈ 3.12 µg/mL)
- Mtb (H37Rv Strain) (MIC in µM) [3]: 25.34 ± 2 µM

Compound: O=C(/C=C/c1sc(Cl)nc1Cl)c1ccc(F)cc1 [Compound 11, (E)-1-(4-fluorophenyl)-3-(2,4-dichlorothiazol-5-yl)prop-2-en-1-one]
- IC50 [1, 4]: 847.3 ± 2 µM
- IC50 [1, 5]: 423.6 ± 2 µM
- melting point: 126 °C
- IC50 [2]: > 70 µg/mL
- antitubercular activity of F compounds over the Cl-containing compounds [3]: 3.79 fold
- MIC [3]: 20.7 ± 2 µM (≈ 6.25 µg/mL)
- Mtb (H37Rv Strain) (MIC in µM) [3]: 20.68 ± 1 µM

Compound: O=C(/C=C/c1sc(Cl)nc1Cl)c1cccc(Cl)c1 [Compound 2, (E)-1-(3-chlorophenyl)-3-(2,4-dichlorothiazol-5-yl)prop-2-en-1-one]
- IC50 [1, 4]: 1607 ± 2 µM
- melting point: 88 °C
- IC50 [2]: > 70 µg/mL
- MIC [3]: 313.9 ± 1 µM (≈ 100 µg/mL)

Compound: O=C(/C=C/c1sc(Cl)nc1Cl)c1ccccn1 [Compound 17, (E)-3-(2,4-dichlorothiazol-5-yl)-1-(pyridin-2-yl)prop-2-en-1-one]
- IC50 [1, 4]: 14 ± 1 µM
- melting point: 156 °C
- IC50 [2]: > 70 µg/mL
- MIC [3]: 350.7 ± 2 µM (≈ 100 µg/mL)

Compound: O=C(/C=C/c1sc(Cl)nc1Cl)c1nccs1 [Compound 20, (E)-3-(2,4-dichlorothiazol-5-yl)-1-(thiazol-2-yl)prop-2-en-1-one]
- IC50 [1, 4]: 6.86 ± 1 µM
- melting point: 127 °C
- IC50 [2]: > 70 µg/mL
- MIC [3]: 343.4 ± 1 µM (≈ 100 µg/mL)

Compound: O=C(/C=C/c1sc(Cl)nc1Cl)c1ccc(Cl)c(Cl)c1 [Compound 8, (E)-1-(3,4-dichlorophenyl)-3-(2,4-dichlorothiazol-5-yl)prop-2-en-1-one]
- IC50 [1, 4]: 1450.3 ± 1 µM
- melting point: 106 °C
- IC50 [2]: > 70 µg/mL
- MIC [3]: 141.6 ± 1 µM (≈ 50 µg/mL)

Compound: O=C(/C=C/c1sc(Cl)nc1Cl)c1ccccc1Cl [Compound 1, (E)-1-(2-chlorophenyl)-3-(2,4-dichlorothiazol-5-yl)prop-2-en-1-one]
- IC50 [1, 4]: 100 ± 2 µM
- melting point: 80 °C
- IC50 [2]: > 70 µg/mL
- MIC [3]: 78.5 ± 1 µM (≈ 25 µg/mL)

Compound: O=C(/C=C/c1sc(Cl)nc1Cl)c1ccc(Cl)cc1 [Compound 3, (E)-1-(4-chlorophenyl)-3-(2,4-dichlorothiazol-5-yl)prop-2-en-1-one]
- IC50 [1, 4]: 401.8 ± 1 µM
- melting point: 104 °C
- IC50 [2]: > 70 µg/mL
- MIC [3]: 78.5 ± 1 µM (≈ 25 µg/mL)

Compound: O=C(/C=C/c1sc(Cl)nc1Cl)c1ccc(F)c(F)c1 [Compound 15, (E)-1-(3,4-difluorophenyl)-3-(2,4-dichlorothiazol-5-yl)prop-2-en-1-one]
- IC50 [1, 4]: 799.7 ± 1 µM
- melting point: 145 °C
- IC50 [2]: > 70 µg/mL
- MIC [3]: 39 ± 1 µM (≈ 12.5 µg/mL)

Compound: O=C(/C=C/c1sc(Cl)nc1Cl)c1ccccc1F [Compound 9, (E)-1-(2-fluorophenyl)-3-(2,4-dichlorothiazol-5-yl)prop-2-en-1-one]
- IC50 [1, 4]: 53 ± 2 µM
- melting point: 91 °C
- IC50 [2]: > 70 µg/mL
- antitubercular activity of F compounds over the Cl-containing compounds [3]: 3.79 fold
- MIC [3]: 20.7 ± 2 µM (≈ 6.25 µg/mL)

Compound: O=C(/C=C/c1sc(Cl)nc1Cl)c1cc(Cl)ccc1Cl [Compound 6, (E)-1-(2,5-dichlorophenyl)-3-(2,4-dichlorothiazol-5-yl)prop-2-en-1-one]
- IC50 [1, 4]: 2900.5 ± 2 µM
- melting point: 84 °C
- IC50 [2]: > 70 µg/mL
- MIC [3]: 141.6 ± 1 µM (≈ 50 µg/mL)

Compound: O=C(/C=C/c1sc(Cl)nc1Cl)c1ccc(F)cc1F [Compound 12, (E)-1-(2,4-difluorophenyl)-3-(2,4-dichlorothiazol-5-yl)prop-2-en-1-one]
- IC50 [1, 4]: 100 ± 1 µM
- melting point: 134 °C
- IC50 [2]: > 70 µg/mL
- MIC [3]: 2.43 µM (≈ 0.778 µg/mL)
- Mtb (H37Rv Strain) (MIC in µM) [3]: 2.43 ± 1 µM
- antitubercular potency relative to the standard pyrazinamide [3]: 10.42 times

Compound: O=C(/C=C/c1sc(Cl)nc1Cl)c1cccc(Cl)c1Cl [Compound 4, (E)-1-(2,3-dichlorophenyl)-3-(2,4-dichlorothiazol-5-yl)prop-2-en-1-one]
- IC50 [1, 4]: 181.3 ± 1 µM
- melting point: 89 °C
- IC50 [2]: > 70 µg/mL
- MIC [3]: 142 ± 2 µM (≈ 50 µg/mL)
